Data on 14 compounds can be found in patent US20170144969A1, “ANT[…], METHOD FOR PRODUCTION AND USES THEREOF” (priority 2014, published 2017).

Like-named read-outs stand apart in the source and are kept apart here. Some results are limits rather than exact numbers.

The subject of data set [1] is human Red Blood Cells. In words: Haemolytic activity. To be noted: human RBCs, 1 h at 37° C.
For data set [2], the system named is vancomycin resistant Enterococcus faecium (VRE) (ATCC 51559). The experiment in a line: Minimum Inhibitory Concentration, micro-dilution broth. The format is cell-based. To be noted: 24 h, 37° C. (Broth dilution looks for growth in wells or tubes with falling amounts of substance.)
Data set [3] has as its system MRSA (ATCC 33591). The description is as above. The format is cell-based, methicillin-resistant S. aureus. As to conditions: 24 h, 37° C.
Data set [4] is described as follows: Antibacterial efficacy (MIC) after incubation in 50% human plasma. To be noted: for MIC / activity: up to 24 h incubation in 50% human plasma.
In data set [5] the test system is E. coli (MTCC 443). The experiment in a line: Minimum Inhibitory Concentration, micro-dilution broth. The format is cell-based. To be noted: 24 h, 37° C.
For data set [6], the system named is Klebsiella pneumoniae (ATCC 700603). The data set is described as above. Format: cell-based. To be noted: 24 h, 37° C.
Data set [7] deals with Enterococcus faecium (ATCC 19634). The data set is described as above. The format is cell-based.
Data set [8] deals with S. aureus (MTCC 737). Described as above. Format: cell-based, Staphylococcus aureus. As to conditions: 24 h, 37° C.
Data set [9] relates to S. aureus biofilms. In words: Bacterial biofilm disruption (pre-formed biofilm). The format is cell-based. To be noted: 64×MIC, 24 h.
For data set [10], the system named is S. aureus. The experiment in a line: Resistance study, serial passage at MIC/2. The format is cell-based. To be noted: 20 passages.
Data set [11] concerns E. coli. In words: Resistance study, serial passage at MIC/2. The format is cell-based. To be noted: 30 passages.
Setting [12] is: 24 h, 37° C., read-out: Minimum Inhibitory Concentration E. faceium.

`CCCCCCCCCCCC(=O)N(CCCNC(=O)[C@@H](N)Cc1ccccc1)CCCNC(=O)[C@@H](N)Cc1ccccc1.O=C(O)C(F)(F)F.O=C(O)C(F)(F)F` [Compound 2, N,N-bis-[{3-(^LPhe)amino}propyl]dodecanamide bis(trifluoroacetate)] showed an HC50 in data set [1] (Table 3) of 205. The MIC in [2] is 2.7 µM; in data set [4] (after 2 h incubation with 50% plasma), 10.7 µM; in data set [4] (after 4 h incubation with 50% plasma) it was 22 µM; in data set [4] (before incubation with 50% human plasma), 5.4 µM; in data set [5] it was 12 µM. Moreover, the “Minimum Inhibitory Concentration MRSA” value in data set [3] was found to be 4 µM. Moreover, the MIC / activity entry in data set [4] is given as “remained same”. Further, the “Minimum Inhibitory Concentration K. pneumonie” value in data set [6] is 9.7 µM.
For `CCCCCCCCCCCC(=O)N(CCCNC(=O)[C@H](N)Cc1ccccc1)CCCNC(=O)[C@H](N)Cc1ccccc1` [Compound 6, N,N-bis-[{3-(^DPhe)amino}propyl]dodecanamide bis(trifluoroacetate)], the MIC is 2.9 µM in [2]; 12 µM in data set [5] (Escherichia coli, MTCC443); 3.3 µM in [7] (setting [12]); 2 to 5 µM in [7] (Enterococcus faecium, ATCC19634, 24 h, read-out: Minimum Inhibitory Concentration E. faceium, 24 h, 37° C.). In data set [4] (human plasma), the stability in plasma result was “stable in plasma”. For the same compound, the MIC / activity result in data set [4] is “did not show any loss of activity”.
In data set [1] (Table 6), `CCCCCCCCCCCC(=O)N(CCCNC(=O)[C@@H](N)[C@@H](C)CC)CCCNC(=O)[C@@H](N)[C@@H](C)CC.O=C(O)C(F)(F)F.O=C(O)C(F)(F)F` [Compound 51, N,N-bis-[{3-(^LIle)amido}propyl]dodecanamide bis(trifluoroacetate)] yielded an HC50 of 95 µM. The MIC turned out to be 11.3 µM in [2], 11 µM in data set [5], 8 µM in [8] and 8 µM in data set [7] (setting [12]). Also, the “Minimum Inhibitory Concentration MRSA” value in [3] was found to be 5.7 µM. Further, in data set [6], the “Minimum Inhibitory Concentration K. pneumonie” value was 28 µM.
As for `CCCCCCCCCCCCCC(=O)N(CCCNC(=O)[C@@H](N)[C@@H](C)CC)CCCNC(=O)[C@@H](N)[C@@H](C)CC.O=C(O)C(F)(F)F.O=C(O)C(F)(F)F` [Compound 52, N,N-bis-[{3-(^LIle)amido}propyl]tetradecanamide bis(trifluoroacetate)], the HC50 in [1] (Table 6) was found to be 64 µM. Moreover, the MIC in [2] is on record as 2.6 µM; in data set [5], 5 µM; in data set [8] it was 3 µM; in data set [7] (setting [12]), 4 µM. The “Minimum Inhibitory Concentration MRSA” value in data set [3] came to 2.9 µM. In data set [6], the “Minimum Inhibitory Concentration K. pneumonie” value is 300 µM.
Take `CCCCCCCCCCCC(=O)N(CCCNC(=O)[C@@H](N)CC(C)C)CCCNC(=O)[C@@H](N)CC(C)C.O=C(O)C(F)(F)F.O=C(O)C(F)(F)F` [Compound 54, N,N-bis-[{3-(^LLeu)amido}propyl]dodecanamide bis(trifluoroacetate)]: the HC50 in data set [1] (Table 6) is 305 µM. In addition, the MIC in data set [2] is recorded as 5 µM; in data set [5], 8.8 µM; in data set [8], 5.8 µM; in data set [7] (setting [12]) it was 8.6 µM. Besides, the “Minimum Inhibitory Concentration MRSA” value in data set [3] stood at 8.9 µM. For the same compound, the “Minimum Inhibitory Concentration K. pneumonie” value in data set [6] worked out at 18 µM.
On to `CCCCCCCCCCCCCCCC(=O)N(CCCNC(=O)[C@@H](N)CC(C)C)CCCNC(=O)[C@@H](N)CC(C)C.O=C(O)C(F)(F)F.O=C(O)C(F)(F)F` [Compound 56, N,N-bis-[{3-(^LLeu)amido}propyl]hexadecanamide bis(trifluoroacetate)], for which the HC50 in data set [1] (Table 6) was 95 µM. Also, the MIC in data set [2] is reported as 3.4 µM; in data set [5], 20 µM; in data set [8], 3.8 µM; in data set [7] (setting [12]), 3.4 µM. Moreover, the “Minimum Inhibitory Concentration MRSA” value in data set [3] was determined as 2.9 µM. Besides, in [6], the “Minimum Inhibitory Concentration K. pneumonie” value stood at 280 µM.
In [1] (Table 6), `CCCCCCCCCCCC(=O)N(CCCNC(=O)[C@@H]1CCCN1)CCCNC(=O)[C@@H]1CCCN1.O=C(O)C(F)(F)F.O=C(O)C(F)(F)F` [Compound 57, N,N-bis-[{3-(^LPro)amido}propyl]dodecanamide bis(trifluoroacetate)] came in with an HC50 of 918 µM. Also, the MIC amounted to 112 µM in [2], 90 µM in [5], 60 µM in data set [8] and 78 µM in data set [7] (setting [12]). Further, the “Minimum Inhibitory Concentration MRSA” value in data set [3] is 130 µM. Also, the “Minimum Inhibitory Concentration K. pneumonie” value in data set [6] is >340 µM.
In the case of `CCCCCCCCCCCCCC(=O)N(CCCNC(=O)[C@@H]1CCCN1)CCCNC(=O)[C@@H]1CCCN1.O=C(O)C(F)(F)F.O=C(O)C(F)(F)F` [Compound 58, N,N-bis-[{3-(^LPro)amido}propyl]tetradecanamide bis(trifluoroacetate)], the HC50 in data set [1] (Table 6) is 216 µM. In addition, the MIC in data set [2] is 18 µM; in data set [5] it was 12 µM; in data set [8], 11 µM; in [7] (setting [12]), 13 µM. In addition, the “Minimum Inhibitory Concentration MRSA” value in data set [3] is 15 µM. Also, the “Minimum Inhibitory Concentration K. pneumonie” value in [6] turned out to be 135 µM.
For the compound `CCCCCCCCCCCCCCCC(=O)N(CCCNC(=O)[C@@H]1CCCN1)CCCNC(=O)[C@@H]1CCCN1.O=C(O)C(F)(F)F.O=C(O)C(F)(F)F` [Compound 59, N,N-bis-[{3-(^LPro)amido}propyl]hexadecanamide bis(trifluoroacetate)], in [1] (Table 6), the HC50 worked out at 76 µM. The MIC stood at 2.7 µM in data set [2], 4.4 µM in [5], 2.8 µM in [8] and 4 µM in data set [7] (setting [12]). In data set [3], the “Minimum Inhibitory Concentration MRSA” value is 7.2 µM. Also, in data set [6], the “Minimum Inhibitory Concentration K. pneumonie” value was determined as 12 µM.
`CC[C@H]1OC(=O)[C@H](C)[C@@H](O[C@H]2C[C@@](C)(OC)[C@@H](O)[C@H](C)O2)[C@H](C)[C@@H](O[C@@H]2O[C@H](C)C[C@H](N(C)C)[C@H]2O)[C@](C)(O)C[C@@H](C)C(=O)[C@H](C)[C@@H](O)[C@]1(C)O` [erythromycin, reference compound]: in data set [9], the “reduction of cell viability in pre-existing biofilms” value (shortened to “reduction of cell viability”) is on record as “none of the antibiotics showed significant reduction”.
`CC(=O)NC[C@H]1CN(c2ccc(N3CCOCC3)c(F)c2)C(=O)O1` [linezolid, reference compound]: in data set [9], the “reduction of cell viability” value was “none of the antibiotics showed significant reduction”.
Turning to `CCn1cc(C(=O)O)c(=O)c2cc(F)c(N3CCNCC3)cc21` [norfloxacin, reference compound], the “fold increase in the MIC” value in data set [10] is “around 800 fold”. In addition, in data set [9], the “reduction of cell viability” value is listed as “none of the antibiotics showed significant reduction”.
With `CN[C@H](CC(C)C)C(=O)N[C@H]1C(=O)N[C@@H](CC(N)=O)C(=O)N[C@H]2C(=O)N[C@H]3C(=O)N[C@H](C(=O)N[C@H](C(=O)O)c4cc(O)cc(O)c4-c4cc3ccc4O)[C@H](O)c3ccc(c(Cl)c3)Oc3cc2cc(c3O[C@@H]2O[C@H](CO)[C@@H](O)[C@H](O)[C@H]2O[C@H]2C[C@](C)(N)[C@H](O)[C@H](C)O2)Oc2ccc(cc2Cl)[C@H]1O` [vancomycin, reference compound], the “reduction of cell viability” value in data set [9] is “none of the antibiotics showed significant reduction”.
Consider colistin [reference compound], for which the “fold increase in the MIC” value in data set [11] is listed as ~250 fold.
